Bridge positions count the residues as written; N and C are the ends. Square brackets hold non-standard residues; d marks the D form. Peptide text beside a SMILES is read from it.
Assays:
hPADI4-stable mES cells = assay: High content microscopy of citrullinated histone H3 (H3Cit) in hPADI4-stable mES cells; assay type: cell-based, mouse; settings: mean H3Cit intensity, KSR/2i 3 h, range of peptide concentrations
Experimental: HaLo-GFP-mito HeLa cells were grown in DMEM (Gibco) supplemented with 10% foetal bovine serum (FBS), penicillin/streptomycin (100 µg/ml) and puromycin (1 µg/ml) at 37 °C, 5% CO2. HaLo-GFP-mito HeLa cell line[82] was profiled by short tandem repeat analysis (STR) and tested negative for mycoplasma by the Cell Services Technology Platform at the Francis Crick Institute. E14 –mouse embryonic stem cells (Cambridge Stem Cell Institute, UK) were cultured in plates coated with 1% gelatine in GMEM supplemented with 10% foetal calf serum (FCS) batch-tested for ES cell culture (Gibco), 0.1 mM non-essential amino acids, 2 mM L-glutamine, 1 mM sodium pyruvate, 0.1 mM β-mercaptoethanol and 50 ng/mL leukaemia inhibitory factor (LIF) (ESGRO, Millipore). For PADI4 activation, cells were cultured in GMEM containing 10% knockout serum replacement (KSR, Life Technologies), 1% FCS batch-tested for ES cell culture (Gibco), 0.1 mM non-essential amino acids, L-glutamine, 1 mM sodium pyruvate, 0.1 mM β-mercaptoethanol, 50 ng/mL LIF (ESGRO, Millipore), 1 μM PD0325901 (AxonMedChem) and 3 μM CHIR99021 (AxonMedChem). For the generation of E14 mES stably expressing human PADI4 (hPADI4-stable), human PADI4 cDNA was inserted into ES E14 cells using the piggyBac transposon system. The Gateway system was used to clone human PADI4 into the piggyBac vector using primers PADI4_AttB1_F and PADI4_AttB2_R (Table S4). pPB-CAG-CTRL (empty vector) or pPB-CAG-hPADI4 vectors […] were transfected with the piggyBac transposase (pPBase) expression vector, pCAGPBase […], by lipofection according to the manufacturer’s instructions (Lipofectamine 2000, Invitrogen). E14 cells constitutively expressing the hygromycin resistance gene and human PADI4 were selected and expanded in media containing […] hygromycin.
E14 cells were seeded onto 96-well PerkinElmer cell carrier ultra plates (Phenoplates) coated with 0.1% gelatine, at 25,000 cells per well and grown overnight at 37 °C, 5% CO2. Outer wells were excluded but medium was added to minimise any edge effects. […]

hPADI4 = target: T1, hPADI4 (Homo sapiens, UniProt Q9UM07); assay: COLDER assay, inhibition of PADI4 at 10 mM CaCl2 (substrate BAEE); assay type: biochemical; settings: COLDER, 10 mM CaCl2, peptide 10–0.0003 µM
T1 construct: PADI4 (residues 1–663); Avi-Tag (unbiotinylated); made in house; host or cells: E. coli BL21(DE3) without BirA
T1 sequence (Q9UM07 whole entry, the tested form may be a part): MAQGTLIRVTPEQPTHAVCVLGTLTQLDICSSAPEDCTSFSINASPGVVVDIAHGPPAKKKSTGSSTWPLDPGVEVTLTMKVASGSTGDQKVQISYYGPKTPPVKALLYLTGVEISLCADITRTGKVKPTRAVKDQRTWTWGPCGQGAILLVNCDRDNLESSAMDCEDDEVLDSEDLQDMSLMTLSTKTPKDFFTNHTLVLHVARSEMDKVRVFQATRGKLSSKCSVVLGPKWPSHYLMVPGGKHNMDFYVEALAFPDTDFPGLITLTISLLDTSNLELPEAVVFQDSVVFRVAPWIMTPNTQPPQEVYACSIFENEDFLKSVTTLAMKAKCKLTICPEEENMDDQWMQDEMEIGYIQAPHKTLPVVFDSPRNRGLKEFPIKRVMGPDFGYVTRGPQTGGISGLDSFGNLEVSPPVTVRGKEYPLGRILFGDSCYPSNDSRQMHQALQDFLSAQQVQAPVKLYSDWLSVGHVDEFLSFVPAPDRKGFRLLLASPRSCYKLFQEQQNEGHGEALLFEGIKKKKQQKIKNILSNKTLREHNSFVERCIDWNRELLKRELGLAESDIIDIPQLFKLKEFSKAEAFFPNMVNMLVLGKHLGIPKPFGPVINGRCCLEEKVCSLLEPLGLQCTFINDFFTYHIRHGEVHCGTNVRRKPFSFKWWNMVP
Experimental: PADI4 activity was assessed using the COLDER assay[43] that measures the formation of urea-containing compounds (e.g. citrulline). The reaction was carried out in a 96-well plate with a final volume of 50 µl. His-PADI4 (50 nM) was incubated with different concentrations of peptides (100 µM to 0.3 nM) in the presence of CaCl2 (from 10 mM to 0.001 mM as specified) for 10 min. The reaction was started by the addition of 10 mM N^α-Benzoyl-L-arginine ethyl ester hydrochloride (BAEE, Merck). After 30 min, the reaction was quenched with EDTA (50 mM final concentration). For colour development, 200 µl of COLDER solution, consisting of 1 volume of solution A (80 mM diacetyl monoxime/2,3-butanedione monoxime (Merck) and 2 mM thiosemicarbazide (Acros Organics)) and 3 volumes of solution B (3 M H3PO4, 6 M H2SO4 and 2 mM NH4Fe(SO4)2) were added to each well and the mixture was heated at 95 °C for 15 min. After cooling to RT, absorbance at 540 nm was measured, and citrulline concentration was determined using a standard curve of citrulline standards. All studies were performed within the linear range of PADI4 activity, and data analysis was performed using Prism GraphPad (Dotmatics). Data are presented as the average ± standard error of the mean from at least two independent replicates.

Bio-hPADI4 wt = target: T2, Bio-hPADI4 wt (Homo sapiens, UniProt Q9UM07); assay: Surface plasmon resonance (SPR), single cycle kinetics, peptide binding to immobilised PADI4
T2 construct: PADI4 (residues 1–663); Avi-Tag (biotinylated by BirA); made in house; host or cells: E. coli BL21-DE3 co-expressing BirA
T2 sequence (Q9UM07 whole entry, the tested form may be a part): as above
Experimental: Single cycle kinetics analysis by SPR was carried out using a Biacore T200 or S200 and a Biotin CAPture kit, series S (Cytiva). […] 50 mM HEPES (pH 7.5), 150 mM NaCl, 2 mM DTT, 0.05 % Tween-20, 0.1% DMSO and variable CaCl2 (as specified) was used as the running buffer and experiments performed at 25 °C.
Samples were run with 120 s contact time, and variable dissociation time (often 360 s). Data were analysed using the Biacore T200 analysis software; data was fitted to a 1:1 binding model accounting for baseline drift where necessary. Data are presented as the average ± standard deviation of at least two independent replicates.

- PADI4 inhibition (in words) (hPADI4): did not bind or inhibit PADI4
- binding to PADI4 (in words) (Bio-hPADI4 wt): did not bind
SMILES: N=C(N)NCCC[C@@H]1NC(=O)[C@H](CC(=O)O)NC(=O)[C@@H](Cc2ccc(O)cc2)NC(=O)CSC[C@@H](C(=O)NCC(N)=O)NC(=O)[C@H](Cc2ccc(O)cc2)NC(=O)[C@H](CCCCN)NC(=O)[C@@H]2CCCN2C(=O)[C@H](Cc2c[nH]cn2)NC(=O)[C@H](CCCNC(=N)N)NC(=O)[C@H](Cc2ccc(O)cc2)NC(=O)[C@H](Cc2c[nH]cn2)NC(=O)[C@H](Cc2c[nH]cn2)NC1=O [PADI4_3i] ({CH2CO}-[dY]DRHHYRHPKYCG-NH2; thioether N-12)
- inhibition of intracellular PADI4 (in words) (hPADI4-stable mES cells): no inhibition

Reference: article PMC11555231 (Nature Communications, 2024)
